Source: ChEMBL document CHEMBL4706524, “Discovery of sulfonyl hydrazone derivative as a new selective PDE4A and PDE4D inhibitor by lead-optimization approach on the prototype LASSBio-448: In vitro and in vivo preclinical studies” (Eur J Med Chem, 2020)

Columns and labels:
Homo sapiens = species: Homo sapiens; test: Inhibition of human recombinant PDE4A1A using FAM-cAMP as substrate at 10 uM measured after 1 hr by IMAP TR-FRET assay
[1] = target: 3',5'-cyclic-AMP phosphodiesterase 4B (Homo sapiens, UniProt Q07343); test: Inhibition of human recombinant PDE4B1 using FAM-cAMP as substrate at 10 uM measured after 1 hr by IMAP TR-FRET assay
[2] = Chemical stability of the compound in KCl/HCl buffer at pH 2.0 measured upto 120 mins by HPLC-DAD analysis; conditions: pH 2, 2 h
[3] = target: 3',5'-cyclic-AMP phosphodiesterase 4D (Homo sapiens, UniProt Q08499); test: Inhibition of human recombinant PDE4D3 using FAM-cAMP as substrate at 10 uM measured after 1 hr by IMAP TR-FRET assay
[4] = Chemical stability of the compound in phosphate buffer at pH 7.4 measured upto 120 mins by HPLC-DAD analysis; format: physicochemical; conditions: pH 7.4, 2 h
[5] = target: 3',5'-cyclic-AMP phosphodiesterase 4C (Homo sapiens, UniProt Q08493); test: Inhibition of human recombinant PDE4C using FAM-cAMP as substrate at 10 uM measured after 1 hr by IMAP TR-FRET assay
Sequence of 3',5'-cyclic-AMP phosphodiesterase 4C (Q08493 whole entry): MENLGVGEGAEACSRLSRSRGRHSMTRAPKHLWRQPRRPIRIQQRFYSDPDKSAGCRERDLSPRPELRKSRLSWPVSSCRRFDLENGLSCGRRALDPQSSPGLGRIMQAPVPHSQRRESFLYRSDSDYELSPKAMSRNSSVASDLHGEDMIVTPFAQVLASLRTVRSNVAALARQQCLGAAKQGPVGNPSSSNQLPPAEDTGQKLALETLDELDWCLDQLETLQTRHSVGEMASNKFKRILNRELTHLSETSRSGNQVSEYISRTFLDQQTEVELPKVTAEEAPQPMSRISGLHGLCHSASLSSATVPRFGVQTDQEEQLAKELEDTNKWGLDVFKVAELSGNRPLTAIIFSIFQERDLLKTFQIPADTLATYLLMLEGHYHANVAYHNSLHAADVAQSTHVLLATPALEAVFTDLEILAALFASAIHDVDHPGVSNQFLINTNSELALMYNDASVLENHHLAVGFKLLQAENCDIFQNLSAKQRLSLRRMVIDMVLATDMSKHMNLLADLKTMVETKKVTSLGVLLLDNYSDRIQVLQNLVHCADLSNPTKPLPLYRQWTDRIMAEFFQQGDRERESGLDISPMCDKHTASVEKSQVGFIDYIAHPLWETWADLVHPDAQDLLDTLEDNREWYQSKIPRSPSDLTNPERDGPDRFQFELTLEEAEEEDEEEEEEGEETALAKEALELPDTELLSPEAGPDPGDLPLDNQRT

Sequence of 3',5'-cyclic-AMP phosphodiesterase 4B (Q07343 whole entry): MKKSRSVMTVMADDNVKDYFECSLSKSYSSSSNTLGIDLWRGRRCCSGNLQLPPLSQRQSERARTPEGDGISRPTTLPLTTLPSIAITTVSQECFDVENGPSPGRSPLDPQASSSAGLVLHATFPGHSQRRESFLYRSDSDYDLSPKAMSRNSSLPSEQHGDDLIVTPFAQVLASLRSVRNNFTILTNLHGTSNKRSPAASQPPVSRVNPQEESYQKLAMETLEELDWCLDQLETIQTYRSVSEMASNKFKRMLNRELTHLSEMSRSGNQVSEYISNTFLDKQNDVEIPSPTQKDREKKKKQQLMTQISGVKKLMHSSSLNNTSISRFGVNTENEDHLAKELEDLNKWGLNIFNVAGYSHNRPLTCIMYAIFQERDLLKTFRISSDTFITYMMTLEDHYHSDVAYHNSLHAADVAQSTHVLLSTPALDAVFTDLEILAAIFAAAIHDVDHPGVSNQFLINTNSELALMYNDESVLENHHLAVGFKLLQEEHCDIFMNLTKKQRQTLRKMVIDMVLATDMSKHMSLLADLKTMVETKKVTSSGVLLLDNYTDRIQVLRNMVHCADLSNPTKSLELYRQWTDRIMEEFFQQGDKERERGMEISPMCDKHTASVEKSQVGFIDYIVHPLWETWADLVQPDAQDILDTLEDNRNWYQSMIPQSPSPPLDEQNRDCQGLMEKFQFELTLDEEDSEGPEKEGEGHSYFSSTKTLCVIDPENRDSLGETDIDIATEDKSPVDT
Sequence of 3',5'-cyclic-AMP phosphodiesterase 4D (Q08499 whole entry): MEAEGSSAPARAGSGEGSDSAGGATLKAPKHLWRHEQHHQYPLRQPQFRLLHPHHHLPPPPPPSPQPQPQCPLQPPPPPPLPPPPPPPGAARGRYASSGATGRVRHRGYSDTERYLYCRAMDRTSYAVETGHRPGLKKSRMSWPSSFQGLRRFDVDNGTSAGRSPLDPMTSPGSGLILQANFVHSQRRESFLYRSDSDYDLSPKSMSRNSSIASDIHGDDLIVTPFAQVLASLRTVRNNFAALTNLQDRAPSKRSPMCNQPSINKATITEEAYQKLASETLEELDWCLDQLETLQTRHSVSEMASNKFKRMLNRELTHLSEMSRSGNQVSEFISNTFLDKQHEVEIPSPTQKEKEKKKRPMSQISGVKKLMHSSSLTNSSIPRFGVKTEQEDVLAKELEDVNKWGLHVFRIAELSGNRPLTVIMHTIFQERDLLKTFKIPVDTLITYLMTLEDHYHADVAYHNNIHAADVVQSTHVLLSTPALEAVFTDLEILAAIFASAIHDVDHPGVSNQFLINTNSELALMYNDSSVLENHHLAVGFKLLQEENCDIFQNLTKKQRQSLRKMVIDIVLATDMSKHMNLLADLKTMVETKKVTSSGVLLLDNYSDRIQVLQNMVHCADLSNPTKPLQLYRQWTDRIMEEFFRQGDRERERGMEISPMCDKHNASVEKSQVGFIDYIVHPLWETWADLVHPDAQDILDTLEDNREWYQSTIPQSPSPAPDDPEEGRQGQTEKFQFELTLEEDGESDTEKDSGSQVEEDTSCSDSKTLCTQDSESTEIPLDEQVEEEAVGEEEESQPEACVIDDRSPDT

| SMILES | inhibition (Homo sapiens) [%] | inhibition [1] [%] | Stabilty [2] | inhibition [3] [%] | Stabilty [4] | inhibition [5] [%] |
| --- | --- | --- | --- | --- | --- | --- |
| COc1ccc(CCNS(=O)(=O)c2ccc(OC)c(OC)c2)cc1OC | 11.3 | < 5 | Stable | 13.6 | Stable | 26 |
| COc1ccc(/C=N/NS(=O)(=O)c2cc3c(cc2C)OCO3)cc1OC | < 5 | < 5 | Unstable | 8.8 | Stable | < 5 |
| COc1ccc(S(=O)(=O)N(C)CCc2ccc(OC)c(OC)c2)cc1 | 43 | 33 | Stable | 35.6 | Stable | 23.5 |
| COc1ccc(CCNS(=O)(=O)c2ccc([N+](=O)[O-])cc2)cc1OC | < 5 | 13.8 | Stable | < 5 | Stable | < 5 |
| COc1ccc(/C=N/NS(=O)(=O)c2ccccc2)cc1OC | 11.9 | < 5 | Unstable | < 5 | Stable | 14.6 |
| COc1ccc(/C=N/NS(=O)(=O)c2ccc(C(F)(F)F)cc2)cc1OC | < 5 | < 5 | Unstable | 19.7 | Stable | 29 |
| COc1ccc(CCNS(=O)(=O)c2ccc3ccccc3c2)cc1OC | 30.4 | < 5 | Stable | 9.1 | Stable | 12.1 |
| COc1ccc(CCNS(=O)(=O)c2ccc(-c3ccccc3)cc2)cc1OC | 14.8 | < 5 | Stable | 10.8 | Stable | < 5 |
| COc1ccc(CCNS(=O)(=O)c2ccccc2C)cc1OC | 6.1 | < 5 | Stable | < 5 | Stable | < 5 |
| COc1ccc(S(=O)(=O)N(C)/N=C/c2ccc(OC)c(OC)c2)cc1 | 31.5 | < 5 | Unstable | 12.8 | Stable | 43 |
| COc1ccc(CCN(C)S(=O)(=O)c2ccc([N+](=O)[O-])cc2)cc1OC | < 5 | < 5 | Stable | < 5 | Stable | 19 |
| COc1ccc(S(=O)(=O)NCCc2ccc(OC)c(OC)c2)cc1 | 11 | < 5 | Stable | 23.8 | Stable | 20.7 |
| COc1ccc(S(=O)(=O)N/N=C/c2ccc(OC)c(OC)c2)cc1 | 35.2 | < 5 | Unstable | 20.2 | Stable | 40.2 |
| COc1ccc(/C=N/N(C)S(=O)(=O)c2ccccc2C)cc1OC | 16.2 | < 5 | Unstable | 26.1 | Stable | 39.3 |
| COc1ccc(CCN(C)S(=O)(=O)c2ccccc2C)cc1OC | 25.9 | 26.5 | Stable | 27.6 | Stable | < 5 |
| COc1ccc(/C=N/NS(=O)(=O)c2ccccc2C)cc1OC | 8 | < 5 | Unstable | 15.9 | Stable | 19.5 |
| COc1ccc(CCN(C)S(=O)(=O)c2ccc(OC)c(OC)c2)cc1OC | 36.1 | 12 | Stable | 31.1 | Stable | 16.4 |
